Where two headings read alike, the source gives them in different places.
Experiments:
[1] = tested on: MCMV; test: In vivo treatment of mice infected with murine cytomegalovirus (MCMV)
Experimental: Compound UMJD 183 was tested in mice infected with murine cytomegalovirus (MCMV). This animal model has been recognized as having capabilities predictive of efficacy in humans.
Compound UMJD 183 and the drug ganciclovir (DHPG) were administered to groups of 15 mice each at doses and times of administration shown in Table 3. Each compound at all doses was administered intraperitoneally twice daily for five days beginning at either 6, 24 or 48 hours after virus inoculation. Animals were observed daily and the number dying each day recorded.

[2] = Growth of HFF cells; assay type: cell-based, human; conditions: human, hff cells; 100 μM; 70-hour incubation; read-out: reduction of number of HFF cells
Experimental: (§1) Population doubling times and cell viability were measured in uninfected HFF and/or KB cells. Cells were planted in replicate 6-well plastic tissue culture dishes or in 25 cm^2 flasks as described above in part 1. Following an incubation period during which cells attached to the substrate, medium was decanted, the cell sheet rinsed once with HBS, and fresh medium added. The medium consisted of MEM(E) with 1.1 gm NaHCO3 /liter and 10% fetal bovine or calf serum plus appropriate log or half-log concentrations of drug. After additional periods of incubation from 1 to 72 hours at 37° C., cells were harvested by means of 0.05% trypsin plus 0.02% EDTA in a HEPES-buffered salt solution. Cells were enumerated using either a Coulter counter or a hemocytometer and viability determining using trypsan blue dye exclusion.
The effect of these compounds on the growth of human diploid fibroblasts (HFF cells) was less pronounced. During a 70-hour incubation, control cells underwent two doublings. […] A 100 μM concentration reduced the number of cells by less than 10%.

[3] = tested on: human PBLs; test: DNA synthesis in mitogen-stimulated human PBLs; assay type: cell-based; conditions: pokeweed mitogen or concanavalin A; 0.1, 1, 10 and 100 μM
[4] = Drug toxicity control in uninfected mice; assay type: in vivo; conditions: for mortality: mouse, in vivo, ip, read-out: Mortality Percent (Toxicity)
[5] = Growth of KB cells (population doubling times); assay type: cell-based, human; conditions: human, kb cells; 100 μM; read-out: reduction of KB cell growth rate
Experimental: as §1
In more extensive cytotoxicity testing, the halogenated compounds were tested for effects on the growth of KB cells. Populations doubling times were calculated from the logarithmic portions of growth curves and were as follows: […]

With `Nc1nc(O)c2ncn(COC(CO)CO)c2n1` [Ganciclovir (DHPG), reference compound] the “MDD (Mean Day of Death)” value ([1]; 0.6 mg/kg at 6 h) was 4.6 days, the “Mortality Number” value ([1]; 0.6 mg/kg at 6 h) was 14/15 and the “Mortality Percent” value ([1]; 0.6 mg/kg at 6 h) was 93%. The “MDD (Mean Day of Death)” value ([1]; 0.6 mg/kg at 24 h) was 5.4 days, the “Mortality Number” value ([1]; 0.6 mg/kg at 24 h) was 12/15 and the “Mortality Percent” value ([1]; 0.6 mg/kg at 24 h) was 80%. The “MDD (Mean Day of Death)” value ([1]; 0.6 mg/kg at 48 h) was 5.3 days, the “Mortality Number” value ([1]; 0.6 mg/kg at 48 h) was 14/15 and the “Mortality Percent” value ([1]; 0.6 mg/kg at 48 h) was 93%. For the same compound, the “MDD (Mean Day of Death)” value ([1]; 1.9 mg/kg at 6 h) was 5.4 days, the “Mortality Number” value ([1]; 1.9 mg/kg at 6 h) was 5/15 and the “Mortality Percent” value ([1]; 1.9 mg/kg at 6 h) was 33%. For the same compound, the “MDD (Mean Day of Death)” value ([1]; 1.9 mg/kg at 24 h) was 4.9 days, the “Mortality Number” value ([1]; 1.9 mg/kg at 24 h) was 12/15 and the “Mortality Percent” value ([1]; 1.9 mg/kg at 24 h) was 80%. For the same compound, the “MDD (Mean Day of Death)” value ([1]; 1.9 mg/kg at 48 h) was 4.9 days, the “Mortality Number” value ([1]; 1.9 mg/kg at 48 h) was 11/15 and the “Mortality Percent” value ([1]; 1.9 mg/kg at 48 h) was 73%. For the same compound, the “MDD (Mean Day of Death)” value ([1]; 5.6 mg/kg at 6 h) was 4.2 days, the “Mortality Number” value ([1]; 5.6 mg/kg at 6 h) was 5/15 and the “Mortality Percent” value ([1]; 5.6 mg/kg at 6 h) was 33%. For the same compound, the “MDD (Mean Day of Death)” value ([1]; 5.6 mg/kg at 24 h) was 5.3 days, the “Mortality Number” value ([1]; 5.6 mg/kg at 24 h) was 7/15 and the “Mortality Percent” value ([1]; 5.6 mg/kg at 24 h) was 47%. The “MDD (Mean Day of Death)” value ([1]; 5.6 mg/kg at 48 h) was 5.5 days, the “Mortality Number” value ([1]; 5.6 mg/kg at 48 h) was 10/15 and the “Mortality Percent” value ([1]; 5.6 mg/kg at 48 h) was 67%. For the same compound, the “MDD (Mean Day of Death)” value ([1]; 16.7 mg/kg at 6 h) was 3.8 days, the “Mortality Number” value ([1]; 16.7 mg/kg at 6 h) was 4/15 and the “Mortality Percent” value ([1]; 16.7 mg/kg at 6 h) was 27%. The “MDD (Mean Day of Death)” value ([1]; 16.7 mg/kg at 24 h) was 5.3 days, the “Mortality Number” value ([1]; 16.7 mg/kg at 24 h) was 7/15 and the “Mortality Percent” value ([1]; 16.7 mg/kg at 24 h) was 47%. The “MDD (Mean Day of Death)” value ([1]; 16.7 mg/kg at 48 h) was 5.5 days, the “Mortality Number” value ([1]; 16.7 mg/kg at 48 h) was 8/15 and the “Mortality Percent” value ([1]; 16.7 mg/kg at 48 h) was 53%.

With `Nc1ncnc2c1c(Cl)cn2COCCO` [UMJD 100, 4-Amino-5-chloro-7-(2-hydroxyethoxymethyl)pyrrolo[2,3-d]-pyrimidine] the inhibition at 70 h, 100 µM [2] was under 10% and the “effect on DNA synthesis in human PBLs” value [3] was “did not affect DNA synthesis”.

For `Nc1ncnc2c1c(Br)cn2COC(CO)CO` [UMJD 183, 4-amino-5-bromo-7-[(1,3-dihydroxy-2-propoxy)methyl]-pyrrolo[2,3-d]pyrimidine], the “Mortality Number (Toxicity)” value ([4]; 1.9 mg/kg, no virus) was 0/15, the “Mortality Number (Toxicity)” value ([4]; 5.6 mg/kg, no virus) was 0/15 and the “MDD (Toxicity)” value ([4]; 16.7 mg/kg, no virus) was 5.0 days. The “Mortality Number (Toxicity)” value ([4]; 16.7 mg/kg, no virus) was 1/15, the “Mortality Number (Toxicity)” value ([4]; 50 mg/kg, no virus) was 0/15 and the “toxicity in uninfected animals (in words)” value ([4]; administered alone to uninfected animals) was “virtually no toxicity”. The “deaths in uninfected animals” value ([4]; all doses together) was 1 death in 60 animals, the mortality ([4]; 1.9 mg/kg, no virus) was 0% and the mortality ([4]; 5.6 mg/kg, no virus) was 0%. For the same compound, the mortality ([4]; 16.7 mg/kg, no virus) was 7%, the mortality ([4]; 50 mg/kg, no virus) was 0% and the “MDD (Mean Day of Death)” value ([1]; 1.9 mg/kg at 6 h) was 6.2 days. For the same compound, the “Mortality Number” value ([1]; 1.9 mg/kg at 6 h) was 5/15, the “Mortality Percent” value ([1]; 1.9 mg/kg at 6 h) was 33% and the “MDD (Mean Day of Death)” value ([1]; 1.9 mg/kg at 24 h) was 4.8 days. The “Mortality Number” value ([1]; 1.9 mg/kg at 24 h) was 9/15, the “Mortality Percent” value ([1]; 1.9 mg/kg at 24 h) was 60% and the “MDD (Mean Day of Death)” value ([1]; 1.9 mg/kg at 48 h) was 4.8 days. The “Mortality Number” value ([1]; 1.9 mg/kg at 48 h) was 10/15, the “Mortality Percent” value ([1]; 1.9 mg/kg at 48 h) was 67% and the “number of animals surviving virus infection (in words)” value ([1]; 5.6 mg/kg) was “highly significant increases in the number of animals surviving”. For the same compound, the “MDD (Mean Day of Death)” value ([1]; 5.6 mg/kg at 6 h) was 8.0 days, the “Mortality Number” value ([1]; 5.6 mg/kg at 6 h) was 1/15 and the “Mortality Percent” value ([1]; 5.6 mg/kg at 6 h) was 7%. For the same compound, the “MDD (Mean Day of Death)” value ([1]; 5.6 mg/kg at 24 h) was 6.3 days, the “Mortality Number” value ([1]; 5.6 mg/kg at 24 h) was 3/15 and the “Mortality Percent” value ([1]; 5.6 mg/kg at 24 h) was 20%. For the same compound, the “MDD (Mean Day of Death)” value ([1]; 5.6 mg/kg at 48 h) was 5.5 days, the “Mortality Number” value ([1]; 5.6 mg/kg at 48 h) was 6/15 and the “Mortality Percent” value ([1]; 5.6 mg/kg at 48 h) was 40%. The “MDD (Mean Day of Death)” value ([1]; 16.7 mg/kg at 6 h) was 8.7 days, the “Mortality Number” value ([1]; 16.7 mg/kg at 6 h) was 9/15 and the “Mortality Percent” value ([1]; 16.7 mg/kg at 6 h) was 60%. The “MDD (Mean Day of Death)” value ([1]; 16.7 mg/kg at 24 h) was 7.1 days, the “Mortality Number” value ([1]; 16.7 mg/kg at 24 h) was 12/15 and the “Mortality Percent” value ([1]; 16.7 mg/kg at 24 h) was 80%. The “MDD (Mean Day of Death)” value ([1]; 16.7 mg/kg at 48 h) was 8.4 days, the “Mortality Number” value ([1]; 16.7 mg/kg at 48 h) was 13/15 and the “Mortality Percent” value ([1]; 16.7 mg/kg at 48 h) was 87%. The “MDD (Mean Day of Death)” value ([1]; 50 mg/kg at 6 h) was 10.8 days, the “Mortality Percent” value ([1]; 50 mg/kg at 6 h) was 60% and the “Mortality Number” value ([1]; 50 mg/kg at 6 h, i.p. twice daily 5 days) was 9/15. For the same compound, the “MDD (Mean Day of Death)” value ([1]; 50 mg/kg at 24 h) was 8.8 days, the “Mortality Number” value ([1]; 50 mg/kg at 24 h) was 14/15 and the “Mortality Percent” value ([1]; 50 mg/kg at 24 h) was 93%. The “MDD (Mean Day of Death)” value ([1]; 50 mg/kg at 48 h) was 7.5 days, the “Mortality Number” value ([1]; 50 mg/kg at 48 h) was 13/15 and the “Mortality Percent” value ([1]; 50 mg/kg at 48 h) was 87%. For the same compound, the “life span of MCMV-infected mice (in words)” value ([1]; all doses) was “prolonged life span (increased the mean day of death) at all doses”.

Work on `OCC(CO)OCn1cc(Br)c2c(NO)ncnc21` [UMJD 299, 4-hydroxylamino-5-bromo-7-[(1,3-dihydroxy-2-propoxy)methyl]pyrrolo[2,3-d]pyrimidine] yielded an inhibition at 100 µM [5] of over 50%.

From patent US4968686A, “Acyclic pyrrolo [2,3-d]pyrimidine analogs as antiviral agents” (The Regents of The University of Michigan, priority 1989, dated 1990)
